One may read the IC50 as the point on the concentration scale where inhibition reaches its midpoint.

Test [1] concerns EUFA30, HeLa, BICR18, U87 cells. Put plainly: Alamar Blue cytotoxicity assay, statements over all tested cell lines. It counts as cell-based. The note with it: Homo sapiens, concentrations 1-300 µM, group range = lowest to highest value, read-out: IC50 across the tested cell lines. The method, then:
(§1) HeLa, U87, BICR18, EUFA30 cell lines were cultured in DMEM medium (Life Technology) supplemented with 10% fetal bovine serum (Life Technology) and 0.1% antibiotics, penicillin and streptomycin (Life Technology). Cells were grown in a humidified atmosphere of CO2/air (5/95%) at 37 °C.
(§2) Exponentially growing cells were seeded onto a 96-well plate at the density of 2 × 10^3 cells/well, cultured for 18 h, and treated with newly synthesized derivatives at concentrations 1–300 µM, or with DMSO as a control, for 24 or 48 h. Alamar Blue (Invitrogen) was added accordingly to manufacturer protocol. After 4 h, light emission at 590 nm was measured with excitation at 560 nm using a scanning multiwell spectrophotometer (DTX 880, Beckman Coulter). The experiments were carried out at least three times with three replicates for each inhibitor concentration. After background subtraction, inhibition rate, IC50 was calculated as the concentration of the component inhibiting cell growth by 50%. All the calculations were performed using Origin 9.0 software.
(The colour change of resazurin is a common sign of viable cells or microbes.)

For test [2], the system named is U87 cells (human primary glioblastoma). Put plainly: Alamar Blue cytotoxicity assay, U87. The class given is cell-based. To be noted: U-87 MG; for IC50: read-out: IC50 based on survival of cells; for inhibition at 300 µM: bracketed values, read-out: proliferation inhibition expressed as a percentage at highest concentration used. The method, then: as §1, §2
Another test relates to HeLa cells. Put plainly: Annexin V-FITC / propidium iodide flow cytometry, HeLa. It counts as cell-based. To be noted: 200 µM, 24 h, non-treated control 5.4%. The method, then:
as §1
(§3) The Annexin V-FITC apoptosis detection kit (BD Biosciences) was used to detect apoptosis by flow cytometry. Cells were seeded at Petri dishes, cultured for 18 h with tested agents applied for 24 h. DMSO was added as the non-treated control and camptothecin (CPT) as the positive control. Subsequently, cells were washed with PBS, resuspended in binding buffer at a concentration of 2 × 10^6 cells/mL, and anti-Annexin V FITC-conjugated antibody and propidium iodide were added to 100 µL aliquots. The mixtures were incubated for 15 min at room temperature, supplemented with binding buffer to 500 µL and processed by BD FACSCalibur (BD Biosciences). Data were analyzed in Flowing Software version 2.5.1 (Flowing Software, http://www.uskonaskel.fi/flowingsoftware).
On the technique in general: A flow cytometer gives signals particle by particle.

Test [3] relates to EUFA30 cells (non-cancerous human fibroblasts). Put plainly: Alamar Blue cytotoxicity assay, EUFA30. To be noted: Fibroblast; for inhibition at 300 µM: bracketed values, read-out: proliferation inhibition expressed as a percentage at highest concentration used; for IC50: read-out: IC50 based on survival of cells. The class given is cell-based. The method, then: as §1, §2
The subject of test [4] is HeLa cells (cervix adenocarcinoma). Put plainly: Alamar Blue cytotoxicity assay, HeLa. The class given is cell-based. The note with it: Homo sapiens; for inhibition at 300 µM: bracketed values, read-out: proliferation inhibition expressed as a percentage at highest concentration used; for IC50: read-out: IC50 based on survival of cells. The method, then:
as §1, §2

Test [5] deals with BICR18 cells (laryngeal squamous cell carcinoma). Put plainly: Alamar Blue cytotoxicity assay, BICR18. The class given is cell-based. To be noted: for IC50: read-out: IC50 based on survival of cells; for inhibition at 300 µM: bracketed values, read-out: proliferation inhibition expressed as a percentage at highest concentration used. The method, then:
as §1, §2

For a further test, the system named is EUFA30 cells. Put plainly: Annexin V-FITC / propidium iodide flow cytometry, EUFA30. The note with it: EUFA30, 200 µM, 24 h; for dead cell fraction: early apoptosis: non-treated control 0.3%; for dead cell fraction: late apoptosis: non-treated control 0.4%; for dead cell fraction: necrosis: non-treated control 5.7%. It counts as cell-based, human. The method, then:
as §1, §3

The mark [6] stands for this setting: BICR18, 48 h of treatment, N.A. = not active.

Structures are written as SMILES. Read-outs that look alike come from different tables or passages of the source.

Turning to `CN1C(=O)c2cc(Cl)c(Cl)cc2C(=O)Nc2ccccc21` [Compound 3g, 8,9-dichloro-5-methyl-5,12-dihydrodibenzo[b,f][1,4]diazocine-6,11-dione], the IC50 in test [1] is 93.7 to 323 µM; in test [2] (U87, 24 h of treatment), 323 ± 23.9 µM; in test [5] (BICR18, 24 h of treatment), 266 ± 27.6 µM. Moreover, the inhibition at 300 µM came out at 2.4% in test [2] (U87, 48 h); 41.6% in test [3] (EUFA30, 24 h); 29.5% in test [3] (EUFA30, 48 h); 43.1% in test [4] (24 h); 5.3% in test [4] (48 h); 12.3% in test [5] (BICR18, 48 h). Besides, the “number of necrotic cells” value in the test with HeLa cells was 8.8%. Further, in the test with EUFA30 cells, the “dead cell fraction: early apoptosis” value turned out to be 5.0%. In the test on EUFA30 cells, the “dead cell fraction: late apoptosis” value was 1.5%. Further, in the test on EUFA30 cells, the “dead cell fraction: necrosis” value turned out to be 6.8%.
Regarding `CN1C(=O)c2c(Cl)c(Cl)c(Cl)c(Cl)c2C(=O)Nc2ccccc21` [Compound 3h, 7,8,9,10-tetrachloro-5-methyl-5,12-dihydrodibenzo[b,f][1,4]diazocine-6,11-dione], the IC50 was 93.7 to 323 µM in test [1]; 97.1 ± 13.2 µM in test [2] (U87, 24 h of treatment); 294 ± 22.4 µM in test [2] (U87, 48 h of treatment, N.A. = not active); 144 ± 10.6 µM in test [3] (EUFA30, 24 h of treatment); 153 ± 4.1 µM in test [3] (EUFA30, 48 h of treatment, N.A. = not active); 132 ± 6 µM in test [4] (24 h of treatment). The IC50 in test [4] (48 h of treatment, N.A. = not active) was 251 ± 5.1 µM; in test [5] (BICR18, 24 h of treatment) it was 93.7 ± 5.2 µM; in test [5] (setting [6]) it was 178 ± 3 µM. Further, in the test with HeLa cells, the “number of necrotic cells” value amounted to 15.3%. Moreover, the “dead cell fraction: early apoptosis” value in the test with EUFA30 cells amounted to 9.0%. Further, in the test on EUFA30 cells, the “dead cell fraction: late apoptosis” value is on record as 1.8%. The “dead cell fraction: necrosis” value in the test with EUFA30 cells is recorded as 15.6%.
As to `CCOC(=O)CN1C(=O)c2cc(Cl)c(Cl)cc2C(=O)N(C)c2ccccc21` [Compound 3n, ethyl 2-(8,9-dichloro-12-methyl-6,11-dioxo-11,12-dihydrodibenzo[b,f][1,4]diazocin-5(6H)-yl)acetate], the IC50 is 93.7 to 323 µM in test [1] and 311 ± 14.1 µM in test [4] (24 h of treatment). The inhibition at 300 µM worked out at 30.7% in test [2] (U87, 24 h); 41.5% in test [3] (EUFA30, 24 h); 20.9% in test [5] (BICR18, 24 h). For the same molecule, the “number of necrotic cells” value with HeLa cells stood at 11.3%. For the same molecule, in the test with EUFA30 cells, the “dead cell fraction: early apoptosis” value stood at 7.8%. In the test with EUFA30 cells, the “dead cell fraction: late apoptosis” value is given as 1.4%. Besides, the “dead cell fraction: necrosis” value in the test with EUFA30 cells is on record as 1.9%.
In the case of `CC(=O)N1C(=O)c2ccccc2C(=O)N(Cc2ccccc2)c2ccccc21` [Compound 3o, 5-acetyl-12-benzyl-5,12-dihydrodibenzo[b,f][1,4]diazocine-6,11-dione], the half-inhibitory concentration (IC50) in test [1] was 93.7 to 323 µM; in test [2] (U87, 24 h of treatment) it was 240 ± 6.1 µM; in test [3] (EUFA30, 24 h of treatment), 155 ± 14.6 µM; in test [4] (24 h of treatment) it was 169 ± 13.4 µM; in test [5] (BICR18, 24 h of treatment), 121 ± 11.4 µM; in test [5] (setting [6]) it was 294 ± 3.2 µM. The inhibition at 300 µM in test [2] (U87, 48 h) worked out at 33.8%; in test [3] (EUFA30, 48 h), 41.8%; in test [4] (48 h), 33.4%. Moreover, the “number of necrotic cells” value in the test with HeLa cells is recorded as 27.7%. Also, the “dead cell fraction: early apoptosis” value with EUFA30 cells worked out at 9.5%. The “dead cell fraction: late apoptosis” value in the test with EUFA30 cells came out at 6.4%. Moreover, in the test with EUFA30 cells, the “dead cell fraction: necrosis” value was found to be 0.8%.

These data come from paper PMC7356613, “Unsymmetrically-Substituted 5,12-dihydrodibenzo[b,f][1,4]diazocine-6,11-dione Scaffold—A Useful Tool for Bioactive Molecules Design” (Molecules, 2020).
